Patent US9309242B2, “Substituted pyrido[2,3-b]pyrazines as FGFR kinase inhibitors” (priority 2011, dated 2016)

Legend:
KDR (h) = KDR (h) (Homo sapiens, UniProt P35968); experiment: KDR (VEGFR2) (enzymatic assay), TR-FRET; format: biochemical; conditions: read-out: VEGFR 2 (KDR) pIC50 (converted)
Summary of the method: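 Low-ATP (3 μM) TR-FRET kinase assay using 500 nM Btn-Flt3 peptide and 150 ng/ml enzyme, run 2 h at room temperature with 6 mM MnCl2 and 0.1 mM Na3VO4. Signal from Eu-anti-P-Tyr/SA-XL-665 is recorded in RFU.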

FGFR4 (h) = FGFR4 (h) (Homo sapiens, UniProt P22455); experiment: FGFR4 (enzymatic assay), TR-FRET; format: biochemical; conditions: FGFR 4 pIC50, enzymatic assay
[1] = system: Ba/F3-FGFR3-transfected cells; experiment: Ba/F3-FGFR3 (plus IL3) cellular proliferation assay, counterscreen with 10 ng/ml murine IL3; format: cell-based; conditions: plus IL3 (10 ng/ml murine IL3, counterscreen); read-out: BAF3-FGFR3 (PLUS IL3) pIC50 (converted)
Summary of the method: (§1)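 With or without 10 ng/ml murine IL3, FGFR3-dependent Ba/F3 cells were treated 24 h with compound, then viability was gauged by Alamar Blue fluorescence after 4 h (ex 540/em 590 nm).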

[2] = molecular target: T1, Ba/F3-FGFR3-transfected cells (Homo sapiens, UniProt P22607); experiment: Ba/F3-FGFR3 (minus IL3) cellular proliferation assay, Alamar Blue; format: cell-based
T1 construct: BAF3-FGFR3 (MIN IL3) pIC50; other: minus IL3
T1 sequence (P22607 whole entry, change not shown): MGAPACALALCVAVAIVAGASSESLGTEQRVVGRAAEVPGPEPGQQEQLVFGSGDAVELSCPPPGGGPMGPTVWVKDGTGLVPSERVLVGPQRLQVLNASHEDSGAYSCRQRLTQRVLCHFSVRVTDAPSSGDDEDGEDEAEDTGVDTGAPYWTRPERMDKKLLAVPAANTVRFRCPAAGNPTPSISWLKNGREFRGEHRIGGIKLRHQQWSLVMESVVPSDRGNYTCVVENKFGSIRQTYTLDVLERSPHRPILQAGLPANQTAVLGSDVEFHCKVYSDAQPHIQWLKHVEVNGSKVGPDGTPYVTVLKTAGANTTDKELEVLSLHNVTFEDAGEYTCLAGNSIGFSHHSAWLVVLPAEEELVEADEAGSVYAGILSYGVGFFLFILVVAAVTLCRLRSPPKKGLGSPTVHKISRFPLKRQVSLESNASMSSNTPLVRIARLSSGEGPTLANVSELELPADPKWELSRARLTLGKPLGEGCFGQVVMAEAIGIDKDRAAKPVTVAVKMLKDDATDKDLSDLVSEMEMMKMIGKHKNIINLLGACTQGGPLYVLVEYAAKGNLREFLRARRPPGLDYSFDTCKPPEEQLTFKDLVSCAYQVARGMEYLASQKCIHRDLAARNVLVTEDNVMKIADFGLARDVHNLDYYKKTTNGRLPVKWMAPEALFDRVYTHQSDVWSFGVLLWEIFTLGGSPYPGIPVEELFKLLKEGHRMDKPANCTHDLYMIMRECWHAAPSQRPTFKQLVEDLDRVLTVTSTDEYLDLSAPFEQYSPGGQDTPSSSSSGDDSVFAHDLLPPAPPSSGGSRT
Summary of the method: as §1

[3] = molecular target: T2, Ba/F3-KDR-transfected cells (Homo sapiens, UniProt P35968); experiment: Ba/F3-KDR (minus IL3) cellular proliferation assay, Alamar Blue; format: cell-based
T2 construct: BAF3-KDR (MIN IL3) pIC50; other: minus IL3
T2 sequence (P35968 whole entry, change not shown): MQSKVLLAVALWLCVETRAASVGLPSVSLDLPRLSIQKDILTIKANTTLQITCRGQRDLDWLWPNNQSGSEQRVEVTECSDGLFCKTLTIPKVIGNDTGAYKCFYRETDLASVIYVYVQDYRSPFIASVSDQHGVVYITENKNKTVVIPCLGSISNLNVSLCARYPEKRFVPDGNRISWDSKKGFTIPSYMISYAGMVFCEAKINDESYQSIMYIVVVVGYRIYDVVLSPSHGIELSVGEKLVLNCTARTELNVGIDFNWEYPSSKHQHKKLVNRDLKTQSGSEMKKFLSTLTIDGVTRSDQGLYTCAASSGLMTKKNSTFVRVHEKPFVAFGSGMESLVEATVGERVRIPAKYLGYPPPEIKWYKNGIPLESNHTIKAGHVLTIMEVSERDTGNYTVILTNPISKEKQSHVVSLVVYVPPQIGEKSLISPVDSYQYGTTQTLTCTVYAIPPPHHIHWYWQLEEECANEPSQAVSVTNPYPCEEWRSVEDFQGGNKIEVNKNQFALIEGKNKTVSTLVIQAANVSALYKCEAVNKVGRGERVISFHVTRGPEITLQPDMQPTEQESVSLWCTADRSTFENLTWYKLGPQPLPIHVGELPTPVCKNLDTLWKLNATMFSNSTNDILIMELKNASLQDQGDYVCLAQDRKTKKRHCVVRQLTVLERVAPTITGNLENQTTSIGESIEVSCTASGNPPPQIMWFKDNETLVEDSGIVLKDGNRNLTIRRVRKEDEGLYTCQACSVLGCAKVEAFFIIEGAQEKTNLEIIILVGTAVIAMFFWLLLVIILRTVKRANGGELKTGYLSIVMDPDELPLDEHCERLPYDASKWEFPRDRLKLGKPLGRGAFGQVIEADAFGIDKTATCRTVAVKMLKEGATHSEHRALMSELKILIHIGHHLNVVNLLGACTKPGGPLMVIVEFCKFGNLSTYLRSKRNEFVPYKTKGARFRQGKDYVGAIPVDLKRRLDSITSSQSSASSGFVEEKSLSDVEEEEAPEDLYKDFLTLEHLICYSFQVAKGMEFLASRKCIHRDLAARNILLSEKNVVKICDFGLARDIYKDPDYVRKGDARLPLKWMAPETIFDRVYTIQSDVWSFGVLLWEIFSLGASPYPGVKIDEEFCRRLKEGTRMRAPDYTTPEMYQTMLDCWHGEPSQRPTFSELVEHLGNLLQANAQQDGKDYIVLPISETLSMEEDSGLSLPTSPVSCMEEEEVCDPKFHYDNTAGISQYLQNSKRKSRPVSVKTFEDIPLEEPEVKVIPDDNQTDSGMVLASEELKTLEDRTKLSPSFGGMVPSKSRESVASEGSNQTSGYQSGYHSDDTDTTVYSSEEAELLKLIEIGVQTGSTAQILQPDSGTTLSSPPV
Summary of the method: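 Cells grown with test compound at 37° C and 5% CO2 for 24 hours were given a resazurin/ferricyanide/ferrocyanide reagent for 4 hours before fluorescence (540/590 nm) was recorded.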

[4] = molecular target: T3, Ba/F3-FGFR1-transfected cells (Homo sapiens, UniProt P11362); experiment: Ba/F3-FGFR1 (minus IL3) cellular proliferation assay, Alamar Blue; format: cell-based
T3 construct: BAF3-FGFR1 (MIN IL3) pIC50; other: minus IL3
Summary of the method: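 Viability of transfected Ba/F3-FGFR1 cells (20000 per well, RPMI-1640 with 10% FBS and 2 mM L-glutamine) was scored by resazurin-based Alamar Blue reduction over 4 h, after 24 h treatment with compound at 37 °C under 5% CO2.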

[5] = system: Ba/F3-FGFR1-transfected cells; experiment: Ba/F3-FGFR1 (plus IL3) cellular proliferation assay, counterscreen with 10 ng/ml murine IL3; format: cell-based; conditions: plus IL3 (10 ng/ml murine IL3, counterscreen); read-out: BAF3-FGFR1 (PLUS IL3) pIC50 (converted)
Summary of the method: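 Proliferation read-out: resazurin-based Alamar Blue fluorescence (540/590 nm) after 4 h, following 24 h compound treatment of 20000 Ba/F3-FGFR1 cells per well in 10% FBS RPMI at 37° C. IL3 counterscreen used the same protocol plus 10 ng/ml murine IL3.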

[6] = molecular target: Ba/F3-FGFR4-transfected cells (Homo sapiens, UniProt P22455); experiment: Ba/F3-FGFR4 cellular proliferation assay, Alamar Blue; format: cell-based
Ba/F3-FGFR4-transfected cells, sequence (P22455 whole entry, change not shown): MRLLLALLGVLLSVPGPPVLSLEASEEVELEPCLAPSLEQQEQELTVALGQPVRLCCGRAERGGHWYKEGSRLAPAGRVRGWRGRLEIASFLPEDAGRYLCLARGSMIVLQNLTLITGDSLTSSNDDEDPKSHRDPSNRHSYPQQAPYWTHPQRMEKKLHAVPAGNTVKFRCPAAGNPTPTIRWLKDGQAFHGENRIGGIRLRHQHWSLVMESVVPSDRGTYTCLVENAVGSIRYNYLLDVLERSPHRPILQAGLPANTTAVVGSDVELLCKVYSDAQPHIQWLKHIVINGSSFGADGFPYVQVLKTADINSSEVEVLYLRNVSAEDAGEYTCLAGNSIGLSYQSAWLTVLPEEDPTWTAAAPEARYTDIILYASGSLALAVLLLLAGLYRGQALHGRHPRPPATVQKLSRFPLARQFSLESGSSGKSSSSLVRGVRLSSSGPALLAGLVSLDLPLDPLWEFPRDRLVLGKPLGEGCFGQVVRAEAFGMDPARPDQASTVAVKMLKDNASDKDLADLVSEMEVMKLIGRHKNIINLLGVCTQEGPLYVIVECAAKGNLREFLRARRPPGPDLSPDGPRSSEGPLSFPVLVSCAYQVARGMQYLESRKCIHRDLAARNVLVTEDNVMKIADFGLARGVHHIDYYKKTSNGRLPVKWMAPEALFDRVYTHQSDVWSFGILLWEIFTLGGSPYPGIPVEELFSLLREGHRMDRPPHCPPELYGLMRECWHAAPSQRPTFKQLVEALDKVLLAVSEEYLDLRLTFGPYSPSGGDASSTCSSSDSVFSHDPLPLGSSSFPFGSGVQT
Summary of the method: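 Here, cells seeded at 20000 per well were treated 24 hours with compound, then given a 4-hour Alamar Blue incubation at 37° C before RFU measurement at ex. 540 nm and em. 590 nm.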

FGFR1 (h) = FGFR1 (h) (Homo sapiens, UniProt P11362); experiment: FGFR1 (enzymatic assay), TR-FRET; format: biochemical; conditions: read-out: FGFR 1 pIC50 (converted)
FGFR1 (h), sequence (P11362 22-822): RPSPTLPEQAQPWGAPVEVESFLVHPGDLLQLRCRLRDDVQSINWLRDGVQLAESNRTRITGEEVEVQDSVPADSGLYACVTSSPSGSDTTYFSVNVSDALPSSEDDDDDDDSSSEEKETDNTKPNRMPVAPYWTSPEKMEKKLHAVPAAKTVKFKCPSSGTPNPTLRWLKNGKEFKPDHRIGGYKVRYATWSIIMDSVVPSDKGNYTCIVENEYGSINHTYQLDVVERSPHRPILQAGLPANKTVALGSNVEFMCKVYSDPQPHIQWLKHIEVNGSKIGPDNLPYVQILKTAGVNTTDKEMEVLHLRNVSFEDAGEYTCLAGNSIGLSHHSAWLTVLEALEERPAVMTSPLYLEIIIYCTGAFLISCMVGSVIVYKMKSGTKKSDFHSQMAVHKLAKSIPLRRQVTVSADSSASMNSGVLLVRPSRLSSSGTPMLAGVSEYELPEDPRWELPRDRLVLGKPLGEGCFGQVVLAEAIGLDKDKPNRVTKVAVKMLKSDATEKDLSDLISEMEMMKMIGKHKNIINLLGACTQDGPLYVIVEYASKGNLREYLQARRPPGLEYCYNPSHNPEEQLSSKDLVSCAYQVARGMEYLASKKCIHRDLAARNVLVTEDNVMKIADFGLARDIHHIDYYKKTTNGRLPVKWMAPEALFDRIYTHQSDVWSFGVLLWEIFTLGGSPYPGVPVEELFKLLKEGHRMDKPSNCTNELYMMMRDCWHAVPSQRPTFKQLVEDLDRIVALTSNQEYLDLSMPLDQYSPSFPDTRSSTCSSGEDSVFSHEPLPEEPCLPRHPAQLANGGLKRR

KDR (h), sequence (P35968 20-1356): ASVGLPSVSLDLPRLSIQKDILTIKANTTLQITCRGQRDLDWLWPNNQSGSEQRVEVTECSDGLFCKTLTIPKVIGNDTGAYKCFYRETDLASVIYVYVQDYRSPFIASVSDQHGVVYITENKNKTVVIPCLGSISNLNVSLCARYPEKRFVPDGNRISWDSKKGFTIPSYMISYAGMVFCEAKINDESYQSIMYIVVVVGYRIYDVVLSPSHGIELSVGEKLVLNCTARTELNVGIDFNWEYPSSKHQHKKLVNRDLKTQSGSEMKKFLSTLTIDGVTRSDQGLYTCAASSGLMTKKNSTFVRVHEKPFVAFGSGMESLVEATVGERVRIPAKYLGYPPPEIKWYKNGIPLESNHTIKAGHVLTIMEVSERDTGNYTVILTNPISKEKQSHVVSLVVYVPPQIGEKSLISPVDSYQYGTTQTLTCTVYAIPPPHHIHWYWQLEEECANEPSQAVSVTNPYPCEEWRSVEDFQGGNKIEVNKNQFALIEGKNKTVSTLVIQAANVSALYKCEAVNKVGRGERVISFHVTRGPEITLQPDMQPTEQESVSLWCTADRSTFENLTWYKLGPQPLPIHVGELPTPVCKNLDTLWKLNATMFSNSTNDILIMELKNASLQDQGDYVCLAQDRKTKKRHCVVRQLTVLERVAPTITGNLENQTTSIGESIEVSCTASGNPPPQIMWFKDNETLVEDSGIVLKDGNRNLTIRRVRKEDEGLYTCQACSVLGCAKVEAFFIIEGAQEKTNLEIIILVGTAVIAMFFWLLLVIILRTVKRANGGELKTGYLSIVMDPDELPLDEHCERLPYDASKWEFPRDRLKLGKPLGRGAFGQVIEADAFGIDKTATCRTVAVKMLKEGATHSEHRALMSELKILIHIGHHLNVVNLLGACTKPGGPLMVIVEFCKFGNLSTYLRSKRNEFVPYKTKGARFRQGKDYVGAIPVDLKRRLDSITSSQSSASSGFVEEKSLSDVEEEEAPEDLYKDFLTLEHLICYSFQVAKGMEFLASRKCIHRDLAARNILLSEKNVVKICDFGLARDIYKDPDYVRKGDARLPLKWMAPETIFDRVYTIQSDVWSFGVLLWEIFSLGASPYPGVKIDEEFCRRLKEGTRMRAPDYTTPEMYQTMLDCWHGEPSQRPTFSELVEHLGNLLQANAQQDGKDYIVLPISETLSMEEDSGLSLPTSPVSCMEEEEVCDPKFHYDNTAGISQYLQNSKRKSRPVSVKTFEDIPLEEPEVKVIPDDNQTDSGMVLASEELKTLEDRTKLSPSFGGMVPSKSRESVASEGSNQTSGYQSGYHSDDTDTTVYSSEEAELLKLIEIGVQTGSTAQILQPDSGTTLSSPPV

Structure (SMILES)	IC50 (KDR (h))	IC50 (FGFR4 (h))	IC50 [1]	BAF3-FGFR3 (MIN IL3) pIC50 [2]	BAF3-KDR (MIN IL3) pIC50 [3]	BAF3-FGFR1 (MIN IL3) pIC50 [4]	IC50 [5]	BAF3-FGFR4 pIC50 [6]	IC50 (FGFR1 (h))
COc1cc(OC)cc(N(Cc2nnco2)c2ccc3ncc(-c4cnn(C)c4)nc3n2)c1 [Compound 217]	162 nM	23.4 nM	> 10000 nM	~6.68	5.18	6.59	> 10000 nM	6.03	7.94 nM
COc1cc(OC)c(F)c(N(CCNC2COC2)c2ccc3ncc(-c4cnn(C)c4)nc3n2)c1F (single isomer, unassigned) [Compound 162]	8.91 nM	2.57 nM	> 10000 nM	7.95	6.61	7.88	> 10000 nM	~7.56	1.17 nM
COc1cc(OC)cc(N(Cc2ncc[nH]2)c2ccc3ncc(-c4cn[nH]c4)nc3n2)c1 [Compound 141]	12 nM	0.603 nM	> 10000 nM	~8.13	5.87	8.27	> 10000 nM	7.40	0.603 nM
COc1cc(OC)c(F)c(N(Cc2ncc[nH]2)c2ccc3ncc(-c4cn[nH]c4)nc3n2)c1 [Compound 190]	7.94 nM	1.12 nM	> 10000 nM	~8.15	6.46	8.19	> 10000 nM	8.08	0.617 nM
COc1cc(OC)cc(N(Cc2ncc[nH]2)c2ccc3ncc(-c4cccnc4)nc3n2)c1 [Compound 182]	64.6 nM	2.34 nM	> 10000 nM	~7.76	5.48	7.60	> 10000 nM	7.17	1.7 nM
COc1cc(/N=c2\ccc3ncc(-c4cnn(C)c4)nc3n2Cc2cn[nH]c2)c(F)c(OC)c1 [Compound 155]	2.45 nM	0.324 nM	> 10000 nM	8.07	6.88	8.13	> 10000 nM	8.09	0.55 nM
COc1cc(OC)c(F)c(N(Cc2ncc[nH]2)c2ccc3ncc(N4CCOCC4)nc3n2)c1F [Compound 215]	52.5 nM	2.14 nM	> 10000 nM	8.18	5.91	8.25	> 10000 nM	7.54	0.741 nM
COc1cc(OC)cc(N(Cc2noc(C)n2)c2ccc3ncc(-c4cnn(C)c4)nc3n2)c1 [Compound 186]	45.7 nM	12 nM	> 10000 nM	~7.11	5.20	7.03	> 10000 nM	6.36	2.45 nM
COc1cc(OC)c(F)c(N(Cc2c(C)noc2C)c2ccc3ncc(-c4cnn(C)c4)nc3n2)c1 [Compound 178]	61.7 nM	19.5 nM	> 10000 nM	6.29	<5	6.20	> 10000 nM	5.83	11.2 nM
COc1cc(OC)c(F)c(N(CC2COC2)c2ccc3ncc(-c4cnn(C)c4)nc3n2)c1 [Compound 144]	22.9 nM	5.25 nM	> 10000 nM	6.33	5.19	6.44	> 10000 nM	6.13	3.89 nM
